{
  "source": "patent US11964943B2",
  "about": "“3,5-diarylidenyl-n-substituted-piperid-4-one-derived inhibitors of Stat3 pathway activity and uses thereof” (priority 2017, dated 2024)",
  "key": {"[1]": {"test_system": "BRCA1, FANCD2, EME1 and MUS81", "test": "RT-PCR and immunoblotting of DNA ICL repair factors", "assay_type": "cell-based", "settings": "DU145 cells, 18 h", "description": "Whole cell lysates were prepared by incubation of harvested, trypsinised cells with CelLytic™ lysis buffer (Sigma-Aldrich) supplemented with 1× protease and 1× phosphatase inhibitors (Roche). Protein quantification was carried out using a protein assay kit (Bio-Rad). 40 μg of the lysates were denatured by heating for 5 min at 95° C. in sample buffer containing 100 mM Tris-Cl (pH 6.8), 4% SDS, 10% 2-mercaptoethanol, 20% glycerol, and 0.02% bromophenol blue. Precision Plus Protein Dual colour standards (Bio-Rad) were used as a molecular weight reference. For the detection of STAT3, pSTAT3, α/β tubulin, cleaved PARP, Bcl-2, Bcl-xL, FANCD2, BRCA1, EME1 and MUS81, proteins were separated on a NuPAGE 7% Tris-acetate gel (Life Technologies) and subsequently transferred to polyvinylidene difluoride membranes (Immobilon®-P transfer membrane; Millipore). […]\nAfter drug-treatment cells were harvested by trypsinisation followed by centrifugation. […] TaqMan Gene Expression Assays (Life Technologies) for FANCD2, BRCA1, EME1 and MUS81 were used to quantify changes in gene expression. […] Fold change was calculated using the comparative CT method normalizing to GAPDH expression.\nRT-PCR. […] TaqMan Gene Expression Assays (Life Technologies) for FANCD2, BRCA1, EME1 and MUS81 were used to quantify changes in gene expression. […] Fold change was calculated using the comparative CT method normalizing to GAPDH expression."}, "[2]": {"test_system": "HCT116-oxaliplatin resistant cells", "test": "Colony formation assay with oxaliplatin", "assay_type": "cell-based", "settings": "10 days", "description": "HCT116-oxaliplatin res cells were seeded at 2000 cells/well in 6-well plates and allowed to adhere overnight. The next day, oxaliplatin and IE-8 were added simultaneously. First, the specific amount of cells solution was removed from each well and afterwards the same volume of the appropriate drug dilution was added to achieve the right concentration. IE-8 was diluted in DMA. Cells were also treated with Oxaliplatin and IE-8 alone. The plates were left the incubator and the cells were allowed to grow colonies for 10 days. After 10 days the entire cell solution was removed from each well, which was subsequently washed with 500 μl of PBS. 1 ml of cold 100% methanol was added and the plates were incubated for 30 minutes at 4 C. After a second wash, the cells were stained with 1 ml of […] staining dye for 2-3 minutes, rinsed with water, allowed to dry overnight and the colonies were quantified using a gel imaging system (Fusion Fx7) and its in-built colony counter software."}, "pStat3": {"test_system": "pStat3", "test": "Immunohistochemistry of pStat3 in xenograft tissue sections", "assay_type": "in vivo, mice", "settings": "A549, A431, DU145 and HCT116-oxaliplatin resistant xenografts, single dose 30 mg/kg, 24 h", "description": "Mice were treated as described in the survival experiments but were sacrificed 24 h post administration of the compound or vehicle, intraperitoneally."}},
  "note": "“Also recorded” adds a separate entry of the source.",
  "data": [
    {"smiles": "COc1cc(/C=C2\\CN(c3ccccc3)C/C(=C\\c3cc(OC)c(OC)c(OC)c3)C2=O)cc(OC)c1OC", "note": "[IE-8, 3,5-Di(3,4,5-trimethoxybenzylidene)-1-phenylpiperidin-4-one]", "values": [
      {"measurement": "expression of BRCA1, FANCD2, EME1 and MUS81 (mRNA and protein)", "setting": "[1]", "result": "markedly downregulated"},
      {"measurement": "number of colonies", "setting": "[2]; 0.1 μM IE-8 + 1 μM oxaliplatin", "result": "about 60"},
      {"measurement": "number of colonies", "setting": "[2]; 0.1 μM IE-8 + 2 μM oxaliplatin", "result": "Less than 25"},
      {"measurement": "pStat3 levels in xenograft tissue sections", "setting": "pStat3", "result": "marked and in many instances significant downregulation; also recorded: downregulation of the pStat3 levels in vivo, was achieved"}
    ]}
  ]
}
